Measurements taken from the OligoGym collection.
Several values for one entry are separate records, joined by “and”; a condition that tells them apart may be missing. Equal values may be shown once. After the bases stand the sugars from the 5' end (letter, count) and the backbone: PS all phosphorothioate, else s phosphorothioate and o phosphodiester by linkage. Methylation of C is not given here. e = 2'-O-(2-methoxyethyl) (MOE); d = 2'-deoxy (DNA)

Target: DGAT2
Details: ASO

Row | Sequence | target mRNA inhibition (HepG2, 0.12 µM) | target mRNA inhibition (HepG2, 2.5 µM) | target mRNA inhibition (HepG2, 10 µM) | target mRNA inhibition (HepG2, 20 µM)
1 | CATCAGGTACTCCCTCAACA (sugars e5 d10 e5, PS) | 35% | – | – | –
2 | CATGGAGCTCAGAGACTCAG (sugars e2 d13 e5, PS) | 71% | – | – | –
3 | CATGGAGCTCAGAGACTCAG (sugars e5 d10 e5, PS) | 65% | – | – | –
4 | CATTGCCACTCCCATTCTTT (sugars e5 d10 e5, PS) | 44% | – | – | –
5 | CATTGCTCAGATCACTCTGC (sugars e5 d10 e5, PS) | – | 88% | 74% | –
6 | CCAACAGTGGTGATGGGCTT (sugars e5 d10 e5, PS) | 60% | – | – | –
7 | CCAACTCCTCCCCTTGGCAG (sugars e5 d10 e5, PS) | 28% | – | – | –
8 | CCAAGTAAGCCTCGGTGTCC (sugars e5 d10 e5, PS) | 32% | – | – | –
9 | CCACAGCGATAATCACA (sugars e3 d10 e4, PS) | – | 63% and 60% | 84% and 75% | –
10 | CCACTCCCATTCTTTGAAAG (sugars e5 d10 e5, PS) | 34% | – | – | –
11 | CCACTGGAGCACTGAGATGA (sugars e2 d13 e5, PS) | 54% | – | – | –
12 | CCACTGTTGCTGAGCTCATG (sugars e5 d10 e5, PS) | – | 68% | 88% | –
13 | CCCACTGGAGCACTGAGATG (sugars e5 d10 e5, PS) | 78% | – | – | –
14 | CCCATCATGACCAGGCCCTG (sugars e5 d10 e5, PS) | – | 31% | 77% | –
15 | CCCGGAGTAGGCGGCTATGA (sugars e5 d10 e5, PS) | – | 60% | 89% | –
16 | CCTAAAGGTGAAGACTGGCT (sugars e5 d10 e5, PS) | – | 77% and 79% | 93% and 94% | –
17 | CCTCATCTCAGTGCCCAAAG (sugars e5 d10 e5, PS) | – | 25% | 63% | –
18 | CCTCGAAGATCACCTGCTTG (sugars e5 d10 e5, PS) | 53% | – | – | –
19 | CCTCGATGTTACATTAAGGG (sugars e5 d10 e5, PS) | – | 82% and 88% | 86% and 90% | –
20 | CCTGGACAAGTCCTGCCCAT (sugars e3 d14 e3, PS) | 70% | – | – | –
21 | CCTTCCAGGGAATAAAATAC (sugars e5 d10 e5, PS) | 3% | – | – | –
22 | CCTTTGAAATCCAATGCACC (sugars e5 d10 e5, PS) | – | 62% | 92% | –

Row | Sequence | target mRNA inhibition (HepG2, 0.12 µM) | target mRNA inhibition (HepG2, 2.5 µM) | target mRNA inhibition (HepG2, 10 µM) | target mRNA inhibition (HepG2, 20 µM)
23 | CGCGATTCACTGAGGACCTC (sugars e5 d10 e5, PS) | – | 73% and 74% | 83% and 93% | –
24 | CTAAGCTTATTAGGTGTCTT (sugars e5 d10 e5, PS) | – | 68% | 81% | –
25 | CTCACCCCTGTACTCAGCCC (sugars e5 d10 e5, PS) | – | 72% | 88% | –
26 | CTCAGAGACTCAGCCGCACC (sugars e3 d14 e3, PS) | 70% | – | – | –
27 | CTCAGTCACTGACTCACAAC (sugars e5 d10 e5, PS) | – | 54% | 88% | –
28 | CTCCCACCTGAGTGCTGCAA (sugars e5 d10 e5, PS) | – | 74% | 90% | –
29 | CTCTGCTTCTTGGGCATCTG (sugars e5 d10 e5, PS) | – | 78% and 70% | 90% and 85% | –
30 | CTGACCTCAGGGTGATCAAG (sugars e5 d10 e5, PS) | 31% | – | – | –
31 | CTGCTTCTTGGGCATCTGCT (sugars e5 d10 e5, PS) | – | 76% and 73% | 88% and 80% | –
32 | CTGGACCCATCGGCCCCAGG (sugars e5 d10 e5, PS) | 41% | – | – | –
33 | CTTAAGGCAAAGTAACATAC (sugars e5 d10 e5, PS) | – | 48% and 57% | 75% and 96% | –
34 | CTTAGGCATGCTTCCTCCCA (sugars e5 d10 e5, PS) | – | 57% | 84% | –
35 | CTTCTTAAAAAAGACCTAAC (sugars e5 d10 e5, PS) | 26% | – | – | –
36 | CTTTGGATAGTCGATTTACC (sugars e5 d10 e5, PS) | – | 59% | 88% | –
37 | CTTTTAAATAACCCACAGAC (sugars e5 d10 e5, PS) | 0% | – | – | –
38 | GAAAGTAGTCTCGAAAGTAG (sugars e5 d10 e5, PS) | 0% | – | – | –
39 | GAATGCACTGAGTTTCTGCT (sugars e5 d10 e5, PS) | – | 73% and 63% | 92% and 87% | –
40 | GACAATGAGTAAGGGTATTC (sugars e5 d10 e5, PS) | – | 48% | 83% | –
41 | GACAGGACCCACTGGAGCAC (sugars e5 d10 e5, PS) | 44% and 69% | – | – | –
42 | GACCTTGGGCAAGTTACCTA (sugars e5 d10 e5, PS) | – | 50% and 71% | 89% and 94% | –
43 | GAGATGACCTGTAGCTGCTT (sugars e5 d10 e5, PS) | 34% | – | – | –
44 | GAGCTCAGAGACTCAGCCGC (sugars e5 d10 e5, PS) | 81% | – | – | –

Row | Sequence | target mRNA inhibition (HepG2, 0.12 µM) | target mRNA inhibition (HepG2, 2.5 µM) | target mRNA inhibition (HepG2, 10 µM) | target mRNA inhibition (HepG2, 20 µM)
45 | GAGCTTCACCAGGGCCTCCA (sugars e5 d10 e5, PS) | 52% | – | 74% and 79% | 83% and 88%
46 | GAGGCCAAGGACAGAGGTTC (sugars e5 d10 e5, PS) | – | 66% | 81% | –
47 | GATAGCATTGCCACTCCCAT (sugars e3 d14 e3, PS) | 75% | – | – | –
48 | GATAGCATTGCCACTCCCAT (sugars e5 d10 e5, PS) | 66% | – | – | –
49 | GATCTCAGTCACTGACTCAC (sugars e5 d10 e5, PS) | – | 57% | 91% | –
50 | GATGCTGGATCCAGTGCCTA (sugars e5 d10 e5, PS) | 53% | – | – | –
51 | GATGGCAACCTAAGGAGTGA (sugars e5 d10 e5, PS) | 37% | – | – | –
52 | GCAATGCCAATGCCTAGGTC (sugars e5 d10 e5, PS) | – | 87% and 89% | 82% and 91% | –
53 | GCACCTGTTACTACATGTCT (sugars e5 d10 e5, PS) | – | 87% and 78% | 92% and 84% | –
54 | GCACTCTCTCTGCACACTCC (sugars e5 d10 e5, PS) | – | 61% | 87% | –
55 | GCACTTGATCTGGGACCCAA (sugars e5 d10 e5, PS) | – | 69% and 73% | 95% and 92% | –
56 | GCAGATCTTCATTACATGAT (sugars e5 d10 e5, PS) | – | – | 86% and 91% | –
57 | GCAGGACCCCGGAGTAGGCG (sugars e2 d13 e5, PS) | 68% | – | – | –
58 | GCAGGACCCCGGAGTAGGCG (sugars e5 d10 e5, PS) | 58% | – | – | –
59 | GCAGGGTTACCCAGCCACTG (sugars e5 d10 e5, PS) | – | 85% and 67% | 75% and 88% | –
60 | GCAGGTTCATCTGCCTT (sugars e3 d10 e4, PS) | – | 54% | 82% | –
61 | GCAGTCTGCCTGATTCCCTT (sugars e5 d10 e5, PS) | – | 60% | 93% | –
62 | GCATAGCTGAGCAAATCCAT (sugars e5 d10 e5, PS) | – | 69% | 85% | –
63 | GCATGCTTCCTCCCACTTCA (sugars e5 d10 e5, PS) | – | 84% | 76% | –
64 | GCCAATGCCTAGGTCAC (sugars e3 d10 e4, PS) | – | 85% and 93% | 79% and 93% | –
65 | GCCACTCCCAGTACAAGGAA (sugars e5 d10 e5, PS) | 0% | – | – | –
66 | GCCAGGTAAGGCCGTATGCC (sugars e3 d14 e3, PS) | 61% | – | – | –

Row | Sequence | target mRNA inhibition (HepG2, 0.12 µM) | target mRNA inhibition (HepG2, 2.5 µM) | target mRNA inhibition (HepG2, 10 µM) | target mRNA inhibition (HepG2, 20 µM)
67 | GCCAGGTGCTCTCATTTCTT (sugars e5 d10 e5, PS) | – | 63% | 91% | –
68 | GCGATTCACTGAGGACCTCA (sugars e5 d10 e5, PS) | – | 74% | 86% | –
69 | GCGCCACACAGCCCAGTTTC (sugars e5 d10 e5, PS) | 31% | – | – | –
70 | GCGCGATTCACTGAGGACCT (sugars e5 d10 e5, PS) | – | 75% | 76% | –
71 | GCTCACTTCTGTGGCCTCTG (sugars e5 d10 e5, PS) | 41% | – | – | –
72 | GCTCAGCACTGACATGGTAA (sugars e5 d10 e5, PS) | – | 79% and 66% | 96% and 92% | –
73 | GCTCTCATTTCTTATCTTCA (sugars e5 d10 e5, PS) | – | 82% and 80% | 95% and 93% | –
74 | GCTGGTGTTCTACAAGCTGC (sugars e5 d10 e5, PS) | – | 79% and 81% and 83% | 90% and 86% and 88% | –
75 | GCTTCACCAGGGCCTCCATG (sugars e5 d10 e5, PS) | 31% | 34% | 57% | 80%
76 | GCTTGGAGTAGGGCACCAGC (sugars e5 d10 e5, PS) | 45% | – | – | –
77 | GGACAGGAGGGTCACACACA (sugars e5 d10 e5, PS) | 45% | – | – | –
78 | GGACCCACTGGAGCACTGAG (sugars e5 d10 e5, PS) | 84% | 14% | 47% | 73%
79 | GGAGCAGGCCTCGGGAAGCA (sugars e5 d10 e5, PS) | – | 38% | 85% | –
80 | GGAGCTCAGAGACTCAGCCG (sugars e2 d13 e5, PS) | 65% | – | – | –
81 | GGAGTAGGGCACCAGCCCCC (sugars e5 d10 e5, PS) | 17% | – | – | –
82 | GGATACTCAGAAGAGCAGTG (sugars e5 d10 e5, PS) | – | 60% | 80% | –
83 | GGATAGTCGATTTACCAGAA (sugars e5 d10 e5, PS) | – | 69% | 85% | –
84 | GGCAAAGTAACATACCTGCT (sugars e5 d10 e5, PS) | – | 72% and 91% | 94% | –
85 | GGCACAGAAAAGTGAGGCTT (sugars e5 d10 e5, PS) | 32% | – | – | –
86 | GGCACCTGTTACTACATGTC (sugars e5 d10 e5, PS) | – | 80% and 75% | 94% and 89% | –
87 | GGCAGATCTTCATTACATGA (sugars e5 d10 e5, PS) | – | 75% and 70% | 80% and 78% | –
88 | GGCATGCTTCCTCCCAC (sugars e3 d10 e4, PS) | – | 56% | 56% | –
